In US20190110476A1, “NOVEL ISOTHIAZOLAMIDES, PROCESSES FOR THEIR PREPARATION AND THEIR USE AS FUNGICIDES” (priority 2014, published 2019):
Marks after values point to notes of the source that are not given here.

Assay: Measurement of LogP values by HPLC on reversed phase columns (EEC directive 79/831 Annex V.A8)
Type: physicochemical
Procedure, shortened: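 LogP measured by reversed-phase HPLC following EEC directive 79/831 Annex V.A8. Lambda-max taken from UV spectra at 200–400 nm at chromatographic peak maxima; diastereoisomer values listed separately.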

Structure (SMILES)	LogP
COc1ccc(CNc2nsc(C(=O)NCc3ccc(Cl)cc3F)c2Cl)cc1 [I-225]	4.03[a]
Nc1nsc(C(=O)NCc2ccc(Oc3ccccc3)cc2)c1Cl [I-227]	2.94[a]
COc1ccc(CNc2nsc(C(=O)NCc3cccc(OC)c3F)c2Cl)cc1 [I-236]	3.46[a]
Nc1nsc(C(=O)NCc2ccc(F)c(Oc3ccccc3)c2)c1Cl [I-237]	2.90[a]
Nc1nsc(C(=O)NCc2ccc(Oc3ccc(F)cc3)cc2)c1Cl [I-238]	3.00[a]
COC(=O)Nc1nsc(C(=O)NCc2ccccc2F)c1Cl [I-239]	1.98[a]
COc1ccc(CNC(=O)c2snc(N)c2Cl)cc1F [I-240]	1.91[a]
COc1ccc(CNc2nsc(C(=O)NCc3ccc(Cl)cc3)c2Cl)cc1 [I-242]	3.99[a]
CC1(C)CC(CNC(=O)c2snc(N)c2Cl)C1 [I-243]	2.49[a]
C[C@H](NC(=O)c1snc(N(Cc2ccccc2)Cc2ccccc2)c1C(F)F)C1CCCCC1 [I-263]	6.20[a]
C[C@H](NC(=O)c1snc(N(Cc2ccccc2)Cc2ccccc2)c1C1CC1)C1CCCCC1 [I-264]	6.20[a]
COc1ccc(CNc2nsc(C(=O)NC3CCCCC3c3ccccc3)c2Cl)cc1 (stereo not drawn) [I-267]	4.69[a]
COc1ccc(CNc2nsc(C(=O)NCc3ncc(C(F)(F)F)cc3Cl)c2Cl)cc1 [I-268]	4.29[a]
COc1ccc(CNc2nsc(C(=O)NC3CCCC3c3ccccc3)c2Cl)cc1 (stereo not drawn) [I-269]	4.41[a]
C[C@H](NC(=O)c1snc(N)c1C(F)F)C1CCCCC1 [I-270]	2.96[a]
C[C@H](NC(=O)c1snc(N)c1C1CC1)C1CCCCC1 [I-271]	2.68[a]
O=C(NCc1ccc(F)cc1F)c1snc(NC(=O)C(F)(F)F)c1Cl [I-280]	2.64[a]
Nc1cc(C(=O)NCc2cccc(Cl)c2)sn1 [I-281]	1.78[a]
Nc1cc(C(=O)NCc2ccccc2Cl)sn1 [I-282]	1.69[a]
O=C(NCc1cccc(Cl)c1)c1cc(N(Cc2ccccc2)Cc2ccccc2)ns1 [I-283]	4.71[a]

Structure (SMILES)	LogP
O=C(NCc1ccccc1Cl)c1cc(N(Cc2ccccc2)Cc2ccccc2)ns1 [I-284]	4.67[a]
O=C(NCc1cc(F)cc(F)c1)c1cc(N(Cc2ccccc2)Cc2ccccc2)ns1 [I-285]	4.53[a]
Nc1nsc(C(=O)NCc2ncc(C(F)(F)F)cc2Cl)c1Cl [I-286]	2.58[a]
Nc1nsc(C(=O)NC2CCCCC2c2ccccc2)c1Cl (stereo not drawn) [I-287]	3.02[a]
Nc1nsc(C(=O)NC2CCCC2c2ccccc2)c1Cl (stereo not drawn) [I-288]	2.71[a]
O=C(NCc1ncc(C(F)(F)F)cc1Cl)c1snc(NC(=O)C2CC2)c1Cl [I-296]	2.71[a]
O=C(NC1CCCC1c1ccccc1)c1snc(NC(=O)C2CC2)c1Cl (stereo not drawn) [I-297]	2.86[a]
O=C(NC1CCCCC1c1ccccc1)c1snc(NC(=O)C2CC2)c1Cl (stereo not drawn) [I-302]	3.19[a]
Nc1cc(C(=O)NCc2cc(F)cc(F)c2)sn1 [I-303]	4.55[a]
Nc1cc(C(=O)NCc2cccc(F)c2)sn1 [I-304]	1.46[a]
Nc1cc(C(=O)NCc2ccccc2F)sn1 [I-305]	1.41[a]
Nc1cc(C(=O)NCc2ccc(Cl)cc2Cl)sn1 [I-306]	2.11[a]
Nc1cc(C(=O)NCc2cc(Cl)cc(Cl)c2)sn1 [I-307]	2.18[a]
Nc1cc(C(=O)NCc2cccc(Cl)c2Cl)sn1 [I-308]	2.02[a]
O=C(NCc1ccc(F)cc1)c1cc(N(Cc2ccccc2)Cc2ccccc2)ns1 [I-309]	4.36[a]
O=C(NCc1cccc(F)c1)c1cc(N(Cc2ccccc2)Cc2ccccc2)ns1 [I-310]	4.40[a]
O=C(NCc1ccccc1F)c1cc(N(Cc2ccccc2)Cc2ccccc2)ns1 [I-311]	4.38[a]
O=C(NCc1cc(Cl)cc(Cl)c1)c1cc(N(Cc2ccccc2)Cc2ccccc2)ns1 [I-312]	2.90[a]
O=C(NCc1cccc(Cl)c1Cl)c1cc(N(Cc2ccccc2)Cc2ccccc2)ns1 [I-313]	5.01[a]
